Biological target: interaction between GST-hMDM2 (1-188) and biotinylated-p53 (1-83) (Homo sapiens (Human), UniProt Q00987)
Experiment: biochemical

Sequence of interaction between GST-hMDM2 (1-188) and biotinylated-p53 (1-83) (Q00987 1-188): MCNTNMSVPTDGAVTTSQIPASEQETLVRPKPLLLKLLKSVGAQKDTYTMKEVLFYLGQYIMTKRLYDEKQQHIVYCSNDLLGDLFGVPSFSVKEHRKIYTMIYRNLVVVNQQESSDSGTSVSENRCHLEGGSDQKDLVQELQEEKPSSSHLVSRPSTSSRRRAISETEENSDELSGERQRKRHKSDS

How did the IC50 turn out when `CC[C@@H](CNS(=O)(=O)c1cccnc1)N1C(=O)[C@@](C)(CC(=O)O)C[C@H](c2cccc(Cl)c2)[C@H]1c1ccc(Cl)cc1` [Example 196, 2-((3R,5R,6S)-5-(3-chlorophenyl)-6-(4-chlorophenyl)-3-methyl-2-oxo-1-((S)-1-(pyridine-3-sulfonamido)butan-2-yl)piperidin-3-yl)acetic acid] was run?
The IC50 was under 1 nM.
